In PubChem BioAssay AID192 (DTP/NCI, 2004):
Several values for one entry are separate records, joined by “and”; a condition that tells them apart may be missing. Equal entries are not always repeated. Toxic doses and inconclusive results are not listed.

Test system: BDF1 mice, B16 melanoma ip, median survival T/C
Test: NCI In Vivo Anticancer Drug Screen. Data for tumor model B16 Melanoma (intraperitoneal) in B6D2F1 (BDF1) mice
Settings: endpoint: median survival time, higher = longer survival
Method in brief: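 Vehicle-treated animals serve as the reference (C); treated animals (T) are scored for survival or tumor size after tumor transplantation.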

[1] = dose: 3.0 mg/kg/injection, schedule: Q01DX009 (ip), vehicle: Klucel (hydroxypropylcellulose) (HPC)
[2] = dose: 100.0 mg/kg/injection, schedule: Q01DX009 (ip), vehicle: Klucel (hydroxypropylcellulose) (HPC)
[3] = dose: 200.0 mg/kg/injection, schedule: Q01DX009 (ip), vehicle: Klucel (hydroxypropylcellulose) (HPC)
[4] = dose: 25.0 mg/kg/injection, schedule: Q01DX009 (ip), vehicle: saline with Tween-80
[5] = dose: 50.0 mg/kg/injection, schedule: Q01DX009 (ip), vehicle: saline with Tween-80
[6] = dose: 100.0 mg/kg/injection, schedule: Q01DX009 (ip), vehicle: saline with Tween-80
[7] = dose: 6.25 mg/kg/injection, schedule: Q01DX009 (ip), vehicle: Klucel (hydroxypropylcellulose) (HPC)
[8] = dose: 12.5 mg/kg/injection, schedule: Q01DX009 (ip), vehicle: Klucel (hydroxypropylcellulose) (HPC)
[9] = dose: 25.0 mg/kg/injection, schedule: Q01DX009 (ip), vehicle: Klucel (hydroxypropylcellulose) (HPC)
[10] = dose: 50.0 mg/kg/injection, schedule: Q01DX009 (ip), vehicle: Klucel (hydroxypropylcellulose) (HPC)

`N[C@@H](Cc1ccc(N(CCCl)CCCl)cc1)C(=O)O` was tested, and the T/C (dose: 0.06 mg/kg/injection, schedule: Q01DX009 (ip), vehicle: saline) was 97 % of control, the T/C (dose: 0.12 mg/kg/injection, schedule: Q01DX009 (ip), vehicle: saline) was 102 % of control and the T/C (dose: 0.25 mg/kg/injection, schedule: Q01DX009 (ip), vehicle: saline) was 104 % of control. The T/C (dose: 0.5 mg/kg/injection, schedule: Q01DX009 (ip), vehicle: carboxymethylcellulose (CMC)) was 95 % of control, the T/C (dose: 0.5 mg/kg/injection, schedule: Q01DX009 (ip), vehicle: water) was 123 % of control and the T/C (dose: 0.75 mg/kg/injection, schedule: Q01DX009 (ip), vehicle: Klucel (hydroxypropylcellulose) (HPC)) was 151 % of control. The T/C (dose: 0.75 mg/kg/injection, schedule: Q01DX009 (ip), vehicle: saline) was 157 % of control, the T/C (dose: 1.0 mg/kg/injection, schedule: Q01DX009 (ip), vehicle: carboxymethylcellulose (CMC)) was 88 % of control and the T/C (dose: 1.0 mg/kg/injection, schedule: Q01DX009 (ip), vehicle: saline with Tween-80) was 180 % of control. The T/C (dose: 1.0 mg/kg/injection, schedule: Q01DX009 (ip), vehicle: water) was 176 % of control, the T/C (dose: 1.2 mg/kg/injection, schedule: Q01DX009 (ip), vehicle: saline) was 167 % of control and the T/C (dose: 1.25 mg/kg/injection, schedule: Q01DX001 (ip), vehicle: water) was 123 % of control. For the same compound, the T/C (dose: 1.5 mg/kg/injection, schedule: Q01DX009 (ip), vehicle: Klucel (hydroxypropylcellulose) (HPC)) was 188 % of control, the T/C (dose: 1.5 mg/kg/injection, schedule: Q01DX009 (ip), vehicle: carboxymethylcellulose (CMC)) was 180 % of control and the T/C (dose: 1.5 mg/kg/injection, schedule: Q01DX009 (ip), vehicle: saline) was 166 % of control and 197 % of control. For the same compound, the T/C (dose: 2.0 mg/kg/injection, schedule: Q01DX009 (ip), vehicle: carboxymethylcellulose (CMC)) was 95 % of control, the T/C (dose: 2.0 mg/kg/injection, schedule: Q01DX009 (ip), vehicle: saline with Tween-80) was 254 % of control and the T/C (dose: 2.0 mg/kg/injection, schedule: Q01DX009 (ip), vehicle: water) was 188 % of control. For the same compound, the T/C (dose: 2.5 mg/kg/injection, schedule: Q01DX001 (ip), vehicle: Klucel (hydroxypropylcellulose) (HPC)) was 164 % of control, the T/C [1] was 198 % of control and the T/C (dose: 3.0 mg/kg/injection, schedule: Q01DX009 (ip), vehicle: saline) was 171 % of control and 262 % of control. For the same compound, the T/C (dose: 3.3 mg/kg/injection, schedule: Q01DX009 (ip), vehicle: saline) was 218 % of control, the T/C (dose: 4.0 mg/kg/injection, schedule: Q01DX009 (ip), vehicle: carboxymethylcellulose (CMC)) was 94 % of control and the T/C (dose: 4.0 mg/kg/injection, schedule: Q01DX009 (ip), vehicle: saline with Tween-80) was 200 % of control. For the same compound, the T/C (dose: 4.0 mg/kg/injection, schedule: Q01DX009 (ip), vehicle: water) was 161 % of control, the T/C (dose: 4.0 mg/kg/injection, schedule: Q04DX003 (ip), vehicle: saline) was 194 % of control and the T/C (dose: 5.0 mg/kg/injection, schedule: Q01DX001 (ip), vehicle: Klucel (hydroxypropylcellulose) (HPC)) was 222 % of control. The T/C (dose: 5.0 mg/kg/injection, schedule: Q01DX005 (ip), vehicle: saline) was 156 % of control, the T/C (dose: 6.0 mg/kg/injection, schedule: Q01DX009 (ip), vehicle: carboxymethylcellulose (CMC)) was 106 % of control and 117 % of control and the T/C (dose: 6.0 mg/kg/injection, schedule: Q01DX009 (ip), vehicle: saline) was 118 % of control. For the same compound, the T/C (dose: 6.0 mg/kg/injection, schedule: Q04DX003 (ip), vehicle: Klucel (hydroxypropylcellulose) (HPC)) was 179 % of control, the T/C (dose: 8.0 mg/kg/injection, schedule: Q04DX003 (ip), vehicle: saline) was 231 % of control and the T/C (dose: 10.0 mg/kg/injection, schedule: Q01DX001 (ip), vehicle: Klucel (hydroxypropylcellulose) (HPC)) was 242 % of control. The T/C (dose: 10.0 mg/kg/injection, schedule: Q01DX001 (ip), vehicle: water) was 191 % of control, the T/C (dose: 10.0 mg/kg/injection, schedule: Q01DX005 (ip), vehicle: saline) was 194 % of control and the T/C (dose: 12.0 mg/kg/injection, schedule: Q04DX003 (ip), vehicle: Klucel (hydroxypropylcellulose) (HPC)) was 169 % of control. For the same compound, the T/C (dose: 16.0 mg/kg/injection, schedule: Q04DX003 (ip), vehicle: saline) was 169 % of control.
In the case of `C=C(C)C(=O)O[C@H]1[C@H]2[C@H](OC(=O)[C@H]2C)[C@H](O)[C@@H](C)[C@@H]2C=CC(=O)[C@]21C`, the T/C (dose: 7.5 mg/kg/injection, schedule: Q01DX009 (ip), vehicle: saline) was 100 % of control, the T/C (dose: 15.0 mg/kg/injection, schedule: Q01DX009 (ip), vehicle: saline with Tween-80) was 98 % of control and the T/C (dose: 15.0 mg/kg/injection, schedule: Q01DX009 (ip), vehicle: saline) was 106 % of control. The T/C (dose: 30.0 mg/kg/injection, schedule: Q01DX009 (ip), vehicle: saline with Tween-80) was 114 % of control, the T/C (dose: 30.0 mg/kg/injection, schedule: Q01DX009 (ip), vehicle: saline) was 117 % of control and the T/C (dose: 60.0 mg/kg/injection, schedule: Q01DX009 (ip), vehicle: saline with Tween-80) was 119 % of control.
In the case of `O=C(O)c1ccc2c(c1)C(=O)c1ccccc1S2(=O)=O`, the T/C [2] was 92 % of control and the T/C [3] was 93 % of control.
`COc1ccc(OC)c(C2N(Cc3ccc(N(C)C)cc3)CCCN2Cc2ccc(N(C)C)cc2)c1` was tested, and the T/C [4] was 104 % of control, the T/C [5] was 97 % of control and the T/C [6] was 100 % of control.
For `CCCCN(CCCC)C(Cl)=Nc1ccccc1`, the T/C [7] was 89 % of control and 99 % of control, the T/C [8] was 101 % of control and 102 % of control and the T/C [9] was 101 % of control. For the same compound, the T/C [10] was 96 % of control and 103 % of control, the T/C [2] was 93 % of control and 105 % of control and the T/C [3] was 88 % of control and 100 % of control.
For `CCC(=O)[O][Bi]([c]1ccccc1)[c]1ccccc1`, the T/C [1] was 90 % of control, the T/C (dose: 6.0 mg/kg/injection, schedule: Q01DX009 (ip), vehicle: Klucel (hydroxypropylcellulose) (HPC)) was 99 % of control and the T/C (dose: 12.0 mg/kg/injection, schedule: Q01DX009 (ip), vehicle: Klucel (hydroxypropylcellulose) (HPC)) was 94 % of control. For the same compound, the T/C (dose: 24.0 mg/kg/injection, schedule: Q01DX009 (ip), vehicle: Klucel (hydroxypropylcellulose) (HPC)) was 91 % of control.
`Nc1nccnc1N` was tested, and the T/C [5] was 102 % of control and the T/C [6] was 88 % of control.
For `FC(F)(F)c1ccc2nc(CI)c(CI)nc2c1`, the T/C [7] was 110 % of control, the T/C [8] was 93 % of control and the T/C [9] was 96 % of control. For the same compound, the T/C [10] was 93 % of control.
`CC(=O)NC(C=O)C(O)C(O)C(O)C(=O)O` (stereo not given) was tested, and the T/C [9] was 101 % of control, the T/C [10] was 100 % of control and the T/C [2] was 92 % of control.
With `O=S(=O)(c1ccc(Cl)cc1)c1ccc(Cl)cc1` the T/C (dose: 100.0 mg/kg/injection, schedule: Q04DX003 (ip), vehicle: saline with Tween-80) was 100 % of control, the T/C (dose: 200.0 mg/kg/injection, schedule: Q04DX003 (ip), vehicle: saline with Tween-80) was 97 % of control and the T/C (dose: 400.0 mg/kg/injection, schedule: Q04DX003 (ip), vehicle: saline with Tween-80) was 100 % of control.
`Cc1c(CNc2ccc(C(=O)NC(CC(=O)O)C(=O)O)cc2)ccc2nc(N)nc(N)c12` (stereo not given) was tested, and the T/C (dose: 0.02 mg/kg/injection, schedule: Q01DX009 (ip), vehicle: saline with Tween-80) was 94 % of control, the T/C (dose: 0.04 mg/kg/injection, schedule: Q01DX009 (ip), vehicle: saline with Tween-80) was 94 % of control and the T/C (dose: 0.04 mg/kg/injection, schedule: Q01DX009 (ip), vehicle: saline) was 103 % of control. The T/C (dose: 0.09 mg/kg/injection, schedule: Q01DX009 (ip), vehicle: saline with Tween-80) was 86 % of control, the T/C (dose: 0.09 mg/kg/injection, schedule: Q01DX009 (ip), vehicle: saline) was 100 % of control and the T/C (dose: 0.18 mg/kg/injection, schedule: Q01DX009 (ip), vehicle: saline with Tween-80) was 97 % of control. For the same compound, the T/C (dose: 0.19 mg/kg/injection, schedule: Q01DX009 (ip), vehicle: saline) was 111 % of control and the T/C (dose: 0.78 mg/kg/injection, schedule: Q01DX009 (ip), vehicle: saline with Tween-80) was 118 % of control.
`CC(C)CCC[C@@H](C)[C@H]1CC[C@H]2[C@@H]3CC=C4C[C@@H](O)CC[C@]4(C)[C@H]3CC[C@]12C` was tested, and the T/C (dose: 100.0 mg/kg/injection, schedule: Q01DX009 (ip), vehicle: other) was 98 % of control and the T/C (dose: 200.0 mg/kg/injection, schedule: Q01DX009 (ip), vehicle: other) was 114 % of control.
With `CCCCNc1cc(Nc2ccc(Br)cc2)nc(N)n1` the T/C [5] was 95 % of control and the T/C [6] was 91 % of control.
With `CCCC1CC[N-]CC1.CCCC1CC[N-]CC1.[Cl][Pt+2][Cl]` the T/C (dose: 6.25 mg/kg/injection, schedule: Q01DX009 (ip), vehicle: saline with Tween-80) was 100 % of control, the T/C (dose: 12.5 mg/kg/injection, schedule: Q01DX009 (ip), vehicle: saline with Tween-80) was 110 % of control and the T/C [4] was 104 % of control.
